Tests used:
[1] = test system: dopaminergic (TH+) neurons derived from primary cultures of embryonic ventral mesencephalon; assay: Spontaneous degeneration of dopaminergic neurons in primary cultures of embryonic ventral mesencephalon, TH+ neuron count at DIV 10; assay type: cell-based; details: for viability at 0.1 µM / viability at 1 µM / viability at 10 µM: Neuron, 240 h, read-out: TH+ neurons, % relative to the control ± standard error; for Neuroprotective activity, in words: survival percentage at 10 μM almost equal to that induced by db-cAMP at 1 mM
Experimental: The compounds of the invention were tested in a model of spontaneous degeneration of dopaminergic neurons derived from primary cultures of embryonic ventral mesencephalon according to the protocol described in the article by S. Guerreiro et a1. (2008). The primary cultures of embryonic ventral mesencephalon thus obtained are mixed cultures containing about 50% neuronal cells and 50% glial cells. Among the neuronal cells, dopaminergic neurons make up 3% of the total neurons, most of the neurons derived from these cultures being GABAergic. Concerning the glial cells, they mainly consist of astrocytes (>95% of the glial cells). These cultures are characterized by spontaneous, progressive and selective death of dopaminergic neurons as a result of a mechanism involving immature astrocytes and calcium dyshomeostasis (E. Rousseau et a1. (2013), D. Toulorge et a1. (2011)). The neuroprotective effect of the compounds of the invention was evaluated by counting dopaminergic (TH^+) neurons stained by tyrosine hydroxylase (TH) immunohistochemistry after 10 days of culture (DIV 10).

Aqueous solubility = assay type: physicochemical; details: aqueous medium (not further specified)
[2] = test system: dopaminergic neurons of the substantia nigra; assay: MPTP mouse model of Parkinson's disease: survival of TH+ dopaminergic neurons in the substantia nigra; assay type: in vivo; details: MPTP/Iac mice
Experimental: (§1) The potential neuroprotective effects of Iac were evaluated by measuring striatum dopamine levels and dopamine turnover in the mouse model of Parkinson's disease treated with MPTP (1-methyl-4-phenyl-1,2,3,6-tetrahydropyridine), and by evaluating the number of dopaminergic neurons saved in the substantia nigra. Mice were treated with Iac (50 and 100 mg/kg, p.o., in 1% carboxymethyl cellulose and 0.5% Tween 80) for 11 consecutive days. MPTP (20 mg/kg; intraperitoneal route), or saline solution for the controls, was administered on treatment days 4 to 8. All mice were killed on day 12 following final administration of the treatment, then the striatal tissue was dissected for analysis. The effect of MPTP treatment on striatum dopamine depletion was analysed by high-pressure liquid chromatography (HPLC) in combination with electrochemical detection for measurement of levels of dopamine monoamine (DA), 3,4-dihydroxyphenylacetic acid (DOPAC), and homovanillic acid (HVA).
At the dose of 2×25 mg/kg/d (par os), the near-total survival of TH^+ neurons was observed. Indeed, in the group of mice treated with MPTP/Iac, survival was measured at 93±4% relative to the controls.

[3] = In vivo study of BBB crossing, HPLC-MS/MS of plasma and brain after IV injection; parameters: species or system CD-1 mice
Experimental: The goal of this study is to confirm, by HPLC coupled to mass spectrometry, the presence of compound Iac in the brain parenchyma after sub-chronic intravenous treatment in mice.
The study is performed with CD-1 mice.
A 0.5 mg/mL solution of compound Iac is prepared in physiological saline containing 10% Cremophor EL®. The same dose of this solution is administered intravenously to 6 mice (2 μL/g).
After 5 min, 3 mice are sacrificed. After 30 min, the other 3 mice are sacrificed.
Blood is drawn, and the plasma is separated by centrifugation. The brain is harvested after intracardiac perfusion. The samples are frozen and stored at −80° C. before treatment.
Plasma: 400 μL of each plasma sample is mixed with 1 mL of acetonitrile to precipitate proteins and extract compound Iac.
Brain: Each brain is ground in 400 μL of physiological saline. 800 μL of acetonitrile is added in order to extract compound Iac.
The treated samples are vortexed for 3 minutes and then placed in a sonicator again for 3 minutes. The precipitated proteins and the solid residues are sedimented by centrifugation (15,000 g, 5 minutes at 4° C.). The supernatants are transferred to a microplate to be analysed by HPLC-MS/MS.
Samples are analysed with the method described below, with detection and quantification, based on peak area, being performed by HPLC-MS/MS in MRM mode.
For the calculation of log [brain]/[plasma] to determine blood-brain barrier crossing, the mean plasma volume of a mouse is evaluated at 1.5 mL.

[4] = test system: mouse model of Parkinson's disease treated with MPTP; assay: MPTP mouse model of Parkinson's disease: striatum dopamine levels and dopamine turnover (HPLC, electrochemical detection); assay type: in vivo; details: MPTP mice
Experimental: as §1

[5] = 50 mg/kg p.o., 11 consecutive days
[6] = 100 mg/kg p.o., 11 consecutive days

Row | SMILES | viability at 0.1 µM [1] | viability at 1 µM [1] | viability at 10 µM [1] | Neuroprotective activity, in words [1] | further results
1 | c1cnc2ccc3nccnc3c2c1 [Iaa] | 25.7 ± 1.6% | 26.2 ± 1.7% | 30.6 ± 2.3% | – | –
2 | c1ccc(-c2cnc3ccc4ncccc4c3n2)cc1 [Iac, 3-phenyl-1,4,8-triazaphenanthrene] | 46.6 ± 2.8% | 64.7 ± 2.9% | 91 ± 3.7% | particularly high activity | solubility (Aqueous solubility): < 10 µg/mL; Activity (concentration showing neuroprotective activity in vitro) ([1]; in vitro): 1 µM; Concentration for optimal neuroprotective activity ([1]; in vitro): 10 µM; Survival of TH+ neurons relative to the controls ([2]; 2×25 mg/kg/d per os): 93±4%; Dopaminergic neuron survival relative to the controls ([2]; 2×50 mg/kg/d per os): 81±4%; Amount (nmol/brain) ([3]; 5 min after IV injection of 1 mg/kg, mice): 5.19 ± 0.25 nmol/brain; Amount (nmol/brain) ([3]; 30 min after IV injection of 1 mg/kg, mice): 0.50 ± 0.07 nmol/brain; Kp at 5 min ([3]; CD-1, brain and plasma, 5 min after IV injection of 1 mg/kg, mean plasma volume of a mouse evaluated at 1.5 mL, read-out: Log [brain]/[plasma]): 0.15 ± 0.05; Kp at 30 min ([3]; CD-1, brain and plasma, 30 min after IV injection of 1 mg/kg, mean plasma volume of a mouse evaluated at 1.5 mL, read-out: Log [brain]/[plasma]): 0.02 ± 0.1; concentration at 5 min ([3]; CD-1, mouse, plasma, 5 min after IV injection of 1 mg/kg, mice): 2470 ± 240 nM; concentration at 30 min ([3]; CD-1, mouse, plasma, 30 min after IV injection of 1 mg/kg, mice): 320 ± 50 nM; Blood-brain barrier crossing in vivo, in words ([3]; after intravenous administration): able to cross the BBB; Decrease in the (DOPAC+HVA)/DA ratio [4, 5]: 30%; Increase of striatum DA levels [4, 5]: 64%; Decrease in the (DOPAC+HVA)/DA ratio [4, 6]: 28%; Increase of striatum DA levels [4, 6]: 78%; Increase of striatum HVA levels [4, 6]: 25%; Effect on DOPAC levels ([4]; 50 and 100 mg/kg p.o.): no significant effect
3 | COc1cc(-c2cnc3ccc4ncccc4c3n2)cc(OC)c1OC [Iaf] | 27.7 ± 1.6% | 46.8 ± 2.3% | 70.8 ± 3.5% | – | –
4 | Fc1ccc(-c2cnc3ccc4ncccc4c3n2)cc1 [Iah] | 24.4 ± 1.4% | 32.8 ± 1.8% | 42.8 ± 2.2% | – | –
5 | c1ccc2cc(-c3cnc4ccc5ncccc5c4n3)ccc2c1 [Iaj] | 28.9 ± 1.8% | 42.8 ± 2.1% | 94.9 ± 3.5% | particularly high activity | –
6 | c1cncc(-c2cnc3ccc4ncccc4c3n2)c1 [Iag] | 31.4 ± 1.7% | 48.3 ± 2.4% | 96.6 ± 4.5% | particularly high activity | –
7 | Cc1nc2ccc3ncccc3c2nc1-c1ccc2ccccc2c1 [Ibj] | 58.1 ± 2.8% | 59.2 ± 2.2% | 67.3 ± 2.5% | – | –
8 | C#Cc1cnc2ccc3ncccc3c2n1 [Iak] | 38.2 ± 2.1% | 40.7 ± 2.6% | 7 ± 1.3% | – | –
9 | Clc1cnc2ccc3ncccc3c2n1 [Iad] | 27.4 ± 1.6% | 26.5 ± 1.6% | 33.8 ± 1.8% | – | –
10 | c1ccc2ncc(-c3cnc4ccc5ncccc5c4n3)cc2c1 [Iam] | 27.6 ± 2% | 46.7 ± 2.7% | 97.3 ± 3.6% | particularly high activity | –
11 | Oc1cccc(-c2cnc3ccc4ncccc4c3n2)c1 [Iae] | 24.7 ± 1.6% | 47.7 ± 2.6% | 99.3 ± 4.4% | particularly high activity | –

From patent publication US10550115B2, “1, 4, 8-triazaphenanthrene derivatives for the treatment of neurodegenerative disorders” (Institut Du Cerveau et de la Moëlle Epiniere, priority 2015, dated 2020)
